Data taken from patent US10934303B2, “Aryl ethene derivative and pharmaceutical composition containing same as active ingredient” (priority 2016, dated 2021).
Where two headings read alike, the source gives them in different places.

Experiments:
[1] = 1 μM, 30 minutes, 37° C., NADPH
[2] = target: CYP2C19 (Homo sapiens (Human), UniProt P33261); test: Cytochrome P450 activity inhibition, CYP2C19; format: in vitro ADME; settings: 10 μM, human liver microsomes, S-mephenytoin substrate
Description: (§1) 1) Cytochrome P450 (CYP450) Activity Inhibition Evaluation

[3] = target: CYP2C9 (Homo sapiens (Human), UniProt P11712); test: Cytochrome P450 activity inhibition, CYP2C9; format: in vitro ADME; settings: 10 μM, human liver microsomes, Diclofenac substrate
CYP2C9, sequence (P11712 whole entry): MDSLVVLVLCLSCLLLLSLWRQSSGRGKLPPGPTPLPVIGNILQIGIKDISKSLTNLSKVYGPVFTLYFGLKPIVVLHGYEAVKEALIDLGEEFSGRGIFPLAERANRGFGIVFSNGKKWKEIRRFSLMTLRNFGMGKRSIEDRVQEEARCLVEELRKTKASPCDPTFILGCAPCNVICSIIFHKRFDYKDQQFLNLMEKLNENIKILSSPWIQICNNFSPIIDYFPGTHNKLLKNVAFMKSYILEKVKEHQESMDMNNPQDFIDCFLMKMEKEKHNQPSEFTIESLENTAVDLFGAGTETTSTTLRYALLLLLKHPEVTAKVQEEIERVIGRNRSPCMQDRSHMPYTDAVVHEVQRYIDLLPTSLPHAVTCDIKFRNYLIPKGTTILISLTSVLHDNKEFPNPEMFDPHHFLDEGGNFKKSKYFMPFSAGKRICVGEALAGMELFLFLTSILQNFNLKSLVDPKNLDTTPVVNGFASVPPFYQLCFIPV
Description: as §1

[4] = target: CYP3A4 (Homo sapiens (Human), UniProt P08684); test: Cytochrome P450 activity inhibition, CYP3A4; format: in vitro ADME; settings: 10 μM, human liver microsomes, Midazolam substrate
CYP3A4, sequence (P08684 whole entry): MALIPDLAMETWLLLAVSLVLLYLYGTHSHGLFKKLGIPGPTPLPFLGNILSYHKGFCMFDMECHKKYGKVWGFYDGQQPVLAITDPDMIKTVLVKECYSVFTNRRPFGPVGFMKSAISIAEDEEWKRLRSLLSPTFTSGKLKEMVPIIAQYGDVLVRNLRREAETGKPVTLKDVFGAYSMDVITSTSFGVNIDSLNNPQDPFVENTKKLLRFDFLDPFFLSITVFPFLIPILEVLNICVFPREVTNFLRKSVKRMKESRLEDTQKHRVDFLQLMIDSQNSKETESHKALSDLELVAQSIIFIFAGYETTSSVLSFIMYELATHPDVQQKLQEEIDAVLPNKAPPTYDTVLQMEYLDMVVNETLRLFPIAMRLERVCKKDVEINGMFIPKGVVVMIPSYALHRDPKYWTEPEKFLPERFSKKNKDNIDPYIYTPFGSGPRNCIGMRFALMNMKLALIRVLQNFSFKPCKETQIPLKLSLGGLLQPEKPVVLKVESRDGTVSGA
Description: as §1

[5] = target: CYP2D6 (Homo sapiens (Human), UniProt P10635); test: Cytochrome P450 activity inhibition, CYP2D6; format: in vitro ADME; settings: 10 μM, human liver microsomes, Dextromethorphan substrate
CYP2D6, sequence (P10635 whole entry): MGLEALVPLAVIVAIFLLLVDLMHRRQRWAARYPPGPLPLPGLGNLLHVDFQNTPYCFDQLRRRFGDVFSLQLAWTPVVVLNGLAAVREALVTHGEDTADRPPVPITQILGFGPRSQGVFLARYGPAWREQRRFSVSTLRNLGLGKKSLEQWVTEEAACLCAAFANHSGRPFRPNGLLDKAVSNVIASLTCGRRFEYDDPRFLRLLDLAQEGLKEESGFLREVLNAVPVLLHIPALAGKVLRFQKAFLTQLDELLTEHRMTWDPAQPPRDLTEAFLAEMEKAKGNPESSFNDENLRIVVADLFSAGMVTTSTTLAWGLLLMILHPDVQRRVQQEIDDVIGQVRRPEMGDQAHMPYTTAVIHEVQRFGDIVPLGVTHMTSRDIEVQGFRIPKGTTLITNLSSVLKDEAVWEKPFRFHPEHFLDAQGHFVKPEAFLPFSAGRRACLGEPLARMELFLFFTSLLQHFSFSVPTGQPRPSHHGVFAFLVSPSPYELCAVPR
Description: as §1

[6] = 1 μM, 30 minutes, 37° C., NADPH; remark: listed apart in the source
[7] = 1 μM, 30 minutes, 37° C., NADPH; remark: listed apart in the source
Description: 2) Microsomal Stability Evaluation
Four liver microsomes (Human, Dog, Rat, Mouse 0.5 mg/ml) with a 0.1 M phosphate buffer solution (pH 7.4), and the arylethene derivative of the present invention were added to a concentration of 1 μM, culturing was performed at 37° C. for 5 minutes in advance, a NADPH regeneration system solution was added thereto, and culturing was performed at 37° C. for 30 minutes. Thereafter, in order to complete the reaction, an acetonitrile solution containing an internal standard material (chlorpropamide) was added thereto, centrifugation (14,000 rpm, 4° C.) was performed for 5 minutes, and a supernatant was injected into a LC-MS/MS system to analyze the substrate drug, thereby evaluating metabolism stability to the arylethene derivative of the present invention.

[8] = target: CYP1A2 (Homo sapiens (Human), UniProt P05177); test: Cytochrome P450 activity inhibition, CYP1A2; format: in vitro ADME; settings: 10 μM, human liver microsomes, Phenacetin substrate
CYP1A2, sequence (P05177 whole entry): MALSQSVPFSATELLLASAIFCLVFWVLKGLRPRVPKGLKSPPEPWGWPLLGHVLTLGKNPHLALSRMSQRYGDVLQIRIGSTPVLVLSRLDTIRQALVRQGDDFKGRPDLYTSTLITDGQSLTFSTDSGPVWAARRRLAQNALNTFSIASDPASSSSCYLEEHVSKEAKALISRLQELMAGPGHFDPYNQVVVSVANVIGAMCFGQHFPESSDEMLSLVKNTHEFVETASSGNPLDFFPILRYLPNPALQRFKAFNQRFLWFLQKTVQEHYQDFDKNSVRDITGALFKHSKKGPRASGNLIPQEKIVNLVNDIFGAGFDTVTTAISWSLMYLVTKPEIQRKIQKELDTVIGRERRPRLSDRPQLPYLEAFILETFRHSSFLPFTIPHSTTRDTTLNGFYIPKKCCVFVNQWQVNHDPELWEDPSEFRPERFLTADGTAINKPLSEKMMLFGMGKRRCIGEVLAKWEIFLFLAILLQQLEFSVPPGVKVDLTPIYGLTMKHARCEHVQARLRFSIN
Description: as §1

[9] = 1 μM, 30 minutes, 37° C., NADPH; remark: listed apart in the source
[10] = in vitro; format: in vitro ADME; parameters: Papp at 5 h: dose or concentration left out as unconfirmed; settings: PBS pH 7.4, 25° C.; for Permeability Pampa: 5 hours
[11] = tested on: ERRγ; format: cell-based
[12] = in vivo; format: in vivo; settings: rat; for Cmax: read-out: Cmax
[13] = activity relative to reference compound GSK5182, 10 μM

CYP2C19, sequence (P33261 whole entry): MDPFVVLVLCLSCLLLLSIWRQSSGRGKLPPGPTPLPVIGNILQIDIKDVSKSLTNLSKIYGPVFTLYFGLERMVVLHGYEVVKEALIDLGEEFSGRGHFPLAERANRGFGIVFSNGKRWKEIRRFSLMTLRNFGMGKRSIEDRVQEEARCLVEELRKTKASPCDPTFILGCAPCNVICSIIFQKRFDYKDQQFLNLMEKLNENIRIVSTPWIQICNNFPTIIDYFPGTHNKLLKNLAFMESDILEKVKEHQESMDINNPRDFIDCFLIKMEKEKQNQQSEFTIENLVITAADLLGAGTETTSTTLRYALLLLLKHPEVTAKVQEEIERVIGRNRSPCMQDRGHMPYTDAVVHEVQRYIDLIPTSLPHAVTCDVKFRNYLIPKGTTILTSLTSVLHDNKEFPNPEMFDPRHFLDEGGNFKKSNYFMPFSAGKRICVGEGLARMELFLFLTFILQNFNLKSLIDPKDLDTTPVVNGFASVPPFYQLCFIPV

Structure (SMILES): CC(C)N1CCC(c2ccc(/C(=C(/CCCO)c3ccccc3)c3cccc(O)c3)cc2)CC1 [Compound 22h]
- MS(Microsomal Stability) (%) dog [1]: 22.4%
- CYP inhibition (% of control) 2C19 [2]: >100 % of control
- CYP inhibition (% of control) 2C9 [3]: 97.9 % of control
- CYP inhibition (% of control) 3A4 [4]: 72.2 % of control
- CYP inhibition (% of control) 2D6 [5]: 69.1 % of control
- MS(Microsomal Stability) (%) mouse [6]: 16.2%
- MS(Microsomal Stability) (%) human [7]: 46.9%
- CYP inhibition (% of control) 1A2 [8]: >100 % of control
- MS(Microsomal Stability) (%) rat [9]: 43.8%

Structure (SMILES): Cc1ccc(/C(=C(\CCCO)c2ccccc2)c2ccc(C3CN(C(C)C)C3)cc2)cc1 [Compound 22e]
- CYP inhibition (% of control) 2C19 [2]: 58.4 % of control
- Permeability Pampa [10]: 6.16 10^−6 cm/s
- CYP inhibition (% of control) 2C9 [3]: 61.3 % of control
- CYP inhibition (% of control) 3A4 [4]: 58.2 % of control
- CYP inhibition (% of control) 2D6 [5]: 71.8 % of control
- CYP inhibition (% of control) 1A2 [8]: 94.9 % of control

Structure (SMILES): OCCC/C(=C(\c1ccc(Br)cc1)c1ccc(N2CCNCC2)cc1)c1ccccc1 [Compound 20a, (E)-5-(4-bromophenyl)-4-phenyl-5-(4-(piperazin-1-yl)phenyl)pent-4-en-1-ol]
- Functional Assay at 10 μM (% of control), Cpds ([11]; 10 μM, 24 hours, AD293): 3.15 % of control
- CYP inhibition (% of control) 2C9 [3]: 76 % of control
- CYP inhibition (% of control) 3A4 [4]: 55 % of control
- MS(Microsomal Stability) (%) human [7]: 65.1%
- CYP inhibition (% of control) 1A2 [8]: 85 % of control
- MS(Microsomal Stability) (%) rat [9]: 84.7%

Structure (SMILES): CC(C)N1CCN(c2ccc(/C(=C(/CCCO)c3ccccc3)c3cccc(O)c3)cc2)CC1 [Compound 18k]
- MS(Microsomal Stability) (%) dog [1]: 61.2%
- Functional Assay at 10 μM (% of control), Cpds ([11]; 10 μM, 24 hours, AD293): 1.08 % of control
- Functional Assay, Cpds/Ref 5182 [11, 13]: 1.14
- Permeability Pampa [10]: 1.29 10^−6 cm/s
- MS(Microsomal Stability) (%) mouse [6]: 26.9%
- MS(Microsomal Stability) (%) human [7]: 65.4%
- MS(Microsomal Stability) (%) rat [9]: 54.9%

Structure (SMILES): OCCC/C(=C(/c1ccc(C2=CCN(C3CC3)CC2)cc1)c1cccc(O)c1)c1ccccc1 [Compound 22l]
- MS(Microsomal Stability) (%) dog [1]: 67.9%
- CYP inhibition (% of control) 2C19 [2]: 97 % of control
- CYP inhibition (% of control) 2C9 [3]: 88.3 % of control
- CYP inhibition (% of control) 3A4 [4]: 80.7 % of control
- CYP inhibition (% of control) 2D6 [5]: 99 % of control
- MS(Microsomal Stability) (%) mouse [6]: 25.8%
- MS(Microsomal Stability) (%) human [7]: 71.8%
- CYP inhibition (% of control) 1A2 [8]: 96.2 % of control
- MS(Microsomal Stability) (%) rat [9]: 53.4%

Structure (SMILES): CC(=O)Nc1ccc(/C(=C(\CCCO)c2ccccc2)c2ccc(C3CCN(C4CC4)CC3)cc2)cc1 [Compound 27c]
- MS(Microsomal Stability) (%) dog [1]: 81.2%
- Permeability Pampa [10]: 0.68 10^−6 cm/s
- MS(Microsomal Stability) (%) mouse [6]: 42.1%
- MS(Microsomal Stability) (%) human [7]: 83.5%
- MS(Microsomal Stability) (%) rat [9]: 79.4%

Structure (SMILES): CC(C)(C)OC(=O)N1CC(c2ccc(/C(=C(/CCCO)c3ccccc3)c3ccc(O)cc3)cc2)C1 [Compound 18t, tert-butyl (E)-3-(4-(5-hydroxy-1-(4-hydroxyphenyl)-2-phenylpent-1-en-1-yl)phenyl)azetidine-1-carboxylate]
- CYP inhibition (% of control) 2C19 [2]: 93 % of control
- Functional Assay at 10 μM (% of control), Cpds ([11]; 10 μM, 24 hours, AD293): 11.1 % of control
- Functional Assay, Cpds/Ref 5182 [11, 13]: 1.11
- CYP inhibition (% of control) 2C9 [3]: 83 % of control
- CYP inhibition (% of control) 2D6 [5]: 98 % of control
- MS(Microsomal Stability) (%) human [7]: 66.9%
- CYP inhibition (% of control) 1A2 [8]: 100 % of control
- MS(Microsomal Stability) (%) rat [9]: 80.5%

Structure (SMILES): CC(C)N1CCC(c2ccc(/C(=C(/CCCO)c3ccccc3)c3ccc(O)cc3)cc2)C1 (racemic) [Compound 22s]
- MS(Microsomal Stability) (%) dog [1]: 35.4%
- MS(Microsomal Stability) (%) mouse [6]: 21.7%
- AUCall ([12]; IV, 1 mg/kg): 0.44 μMh
- Vss ([12]; IV, 1 mg/kg): 13.2 L/kg
- t1/2 ([12]; IV, 1 mg/kg): 2.2 h
- AUCINF ([12]; PO, 10 mg/kg): 0.11 μMh
- AUCall ([12]; PO, 10 mg/kg): 0.09 μMh
- BA ([12]; PO, 10 mg/kg): 18.5%
- Tmax ([12]; PO, 10 mg/kg): 1.3 h
- Cmax ([12]; PO, 10 mg/kg): 20 nM
- MS(Microsomal Stability) (%) human [7]: 34.9%
- MS(Microsomal Stability) (%) rat [9]: 75.6%

Structure (SMILES): Cl.Cl.OCCC/C(=C(\c1ccc(O)cc1)c1ccc(OCCN2CCNCC2)cc1)c1ccccc1 [Compound 7a, (Z)-4-(5-hydroxy-2-phenyl-1-(4-(2-(piperazin-1-yl)ethoxy)phenyl)pent-1-en-1-yl)phenol 2hydrochloride salt]
- MS(Microsomal Stability) (%) dog [1]: 64.7%
- Functional Assay at 10 μM (% of control), Cpds [11]: 2.71 % of control
- Functional Assay, Cpds/Ref 5182 [11]: 0.86
- MS(Microsomal Stability) (%) mouse [6]: 32.1%
- MS(Microsomal Stability) (%) human [7]: 49.0%
- MS(Microsomal Stability) (%) rat [9]: 59.5%

Structure (SMILES): Cc1ccc(/C(=C(\CCCO)c2ccccc2)c2ccc(C3CCN(C)CC3)cc2)cc1 [Compound 22f]
- MS(Microsomal Stability) (%) dog [1]: 78.1%
- Permeability Pampa [10]: 3.96 10^−6 cm/s
- MS(Microsomal Stability) (%) mouse [6]: 66.3%
- MS(Microsomal Stability) (%) human [7]: 97.0%
- MS(Microsomal Stability) (%) rat [9]: 80.0%

Structure (SMILES): Cc1ccc(/C(=C(\CCCO)c2ccccc2)c2ccc(C3CCNCC3)cc2)cc1 [Compound 20k]
- MS(Microsomal Stability) (%) dog [1]: 84.9%
- CYP inhibition (% of control) 2C19 [2]: 78.9 % of control
- CYP inhibition (% of control) 2C9 [3]: 87.6 % of control
- CYP inhibition (% of control) 3A4 [4]: 83.6 % of control
- CYP inhibition (% of control) 2D6 [5]: 96.2 % of control
- MS(Microsomal Stability) (%) mouse [6]: 81.3%
- MS(Microsomal Stability) (%) human [7]: 93.6%
- CYP inhibition (% of control) 1A2 [8]: 79.3 % of control
- MS(Microsomal Stability) (%) rat [9]: 89.0%

Structure (SMILES): OCCC/C(=C(\c1ccc(O)cc1)c1ccc(C2CCN(C3CC3)CC2)cc1)c1ccccc1 [Compound 22i]
- MS(Microsomal Stability) (%) dog [1]: 91.5%
- Permeability Pampa [10]: 0.35 10^−6 cm/s
- MS(Microsomal Stability) (%) mouse [6]: 83.6%
- AUCINF ([12]; IV, 1 mg/kg): 0.54 μMh
- AUCall ([12]; IV, 1 mg/kg): 0.49 μMh
- Vss ([12]; IV, 1 mg/kg): 11.7 L/kg
- t1/2 ([12]; IV, 1 mg/kg): 3.0 h
- AUCINF ([12]; PO, 10 mg/kg): 4.52 μMh
- AUCall ([12]; PO, 10 mg/kg): 2.24 μMh
- BA ([12]; PO, 10 mg/kg): 45.3%
- Tmax ([12]; PO, 10 mg/kg): 2.2 h
- Cmax ([12]; PO, 10 mg/kg): 380 nM
- MS(Microsomal Stability) (%) human [7]: 36.0%
- MS(Microsomal Stability) (%) rat [9]: 92.6%

Structure (SMILES): CN1CCCC1CCOc1ccc(/C(=C(/CCCO)c2ccccc2)c2ccc(Br)cc2)cc1 (centres unmarked) [Compound 13d]
- Papp at 5 h ([10]; PAMPA, read-out: Permeability Pampa): 0.14 ×10⁻⁶ cm/s
- CYP inhibition (% of control) 2C9 [3]: 97 % of control
- CYP inhibition (% of control) 2D6 [5]: >100 % of control
- MS(Microsomal Stability) (%) human [7]: 67.3%
- CYP inhibition (% of control) 1A2 [8]: >100 % of control
- MS(Microsomal Stability) (%) rat [9]: 59.9%

Structure (SMILES): CC(=O)Nc1ccc(/C(=C(\CCCOC(C)=O)c2ccccc2)c2ccc(C3CCN(C4CC4)CC3)cc2)cc1 [Compound 27d]
- MS(Microsomal Stability) (%) dog [1]: 43.8%
- Permeability Pampa [10]: 0.34 10^−6 cm/s
- MS(Microsomal Stability) (%) mouse [6]: 17.6%
- MS(Microsomal Stability) (%) human [7]: 63.7%
- MS(Microsomal Stability) (%) rat [9]: 67.6%

Structure (SMILES): CC(C)N1CCC(c2ccc(/C(=C(/CCCO)c3ccccc3)c3cccc(O)c3)cc2)C1 (racemic) [Compound 22u]
- MS(Microsomal Stability) (%) dog [1]: 10.0%
- MS(Microsomal Stability) (%) mouse [6]: 17.2%
- MS(Microsomal Stability) (%) human [7]: 40.0%
- MS(Microsomal Stability) (%) rat [9]: 44.3%

Structure (SMILES): CN1CCC(c2ccc(/C(=C(/CCCO)c3ccccc3)c3cccc(O)c3)cc2)CC1 [Compound 22ac]
- CYP inhibition (% of control) 2C19 [2]: >100 % of control
- CYP inhibition (% of control) 2C9 [3]: >100 % of control
- CYP inhibition (% of control) 3A4 [4]: 85 % of control
- CYP inhibition (% of control) 2D6 [5]: 86.2 % of control
- CYP inhibition (% of control) 1A2 [8]: >100 % of control
